How the values were obtained:
Format in all cases: in vivo
[1] = test system: Alopecurus myosuroides (ALOMY); assay: Pre-emergence herbicidal activity, glasshouse pot test; conditions: Alopecurus myosuroides, 312 h; Rate 250 g/ha; pre-emergence spray; evaluated after 13 days; read-out: Pre-emergence activity ALOMY (100=total damage to plant; 0=no damage to plant)
Procedure, shortened: (§1)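 Herbicide damage scored 0–100 at 13 d. Pre-emergence: spray 1 d after sowing; post-emergence: spray after 8 d growth. Formulation acetone/water 50:50, 0.5% Tween 20, aqueous spray.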

[2] = test system: Avena fatua (AVEFA); assay: as above; conditions: Avena fatua, 312 h; Rate 250 g/ha; pre-emergence spray; evaluated after 13 days; read-out: Pre-emergence activity AVEFA (100=total damage to plant; 0=no damage to plant)
Procedure, shortened: as §1

[3] = test system: Echinochloa crus-galli (ECHCG); assay: as above; conditions: Echinochloa crus-galli, 312 h; Rate 250 g/ha; pre-emergence spray; evaluated after 13 days; read-out: Pre-emergence activity ECHCG (100=total damage to plant; 0=no damage to plant)
Procedure, shortened: as §1

[4] = test system: Lolium perenne (LOLPE); assay: as above; conditions: Lolium perenne, 312 h; Rate 250 g/ha; pre-emergence spray; evaluated after 13 days; read-out: Pre-emergence activity LOLPE (100=total damage to plant; 0=no damage to plant)
Procedure, shortened: as §1

[5] = test system: Alopecurus myosuroides (ALOMY); assay: Post-emergence herbicidal activity, glasshouse pot test; conditions: Alopecurus myosuroides, 312 h, rate 250 g/ha, evaluated after 13 days, glasshouse, read-out: Post-emergence activity ALOMY (100=total damage to plant; 0=no damage to plant)
Procedure, shortened: as §1

[6] = test system: Avena fatua (AVEFA); assay: as above; conditions: Avena fatua, 312 h, rate 250 g/ha, evaluated after 13 days, glasshouse, read-out: Post-emergence activity AVEFA (100=total damage to plant; 0=no damage to plant)
Procedure, shortened: as §1

[7] = test system: Echinochloa crus-galli (ECHCG); assay: as above; conditions: Echinochloa crus-galli, 312 h, rate 250 g/ha, evaluated after 13 days, glasshouse, read-out: Post-emergence activity ECHCG (100=total damage to plant; 0=no damage to plant)
Procedure, shortened: as §1

[8] = test system: Lolium perenne (LOLPE); assay: as above; conditions: Lolium perenne, 312 h, rate 250 g/ha, evaluated after 13 days, glasshouse, read-out: Post-emergence activity LOLPE (100=total damage to plant; 0=no damage to plant)
Procedure, shortened: as §1

With `CCc1ccc(Oc2ncc(C(F)(F)F)cc2Cl)cc1C1=C(O)[C@@H]2CC[C@](C)(C1=O)C2(C)C` [Example A-317] the pest or weed control at 250 g/ha [1] was 100%, the pest or weed control at 250 g/ha [2] was 100% and the pest or weed control at 250 g/ha [3] was 100%. It also gave a pest or weed control at 250 g/ha [4] of 100%, a pest or weed control at 250 g/ha [5] of 100% and a pest or weed control at 250 g/ha [6] of 100%. The pest or weed control at 250 g/ha [7] was 100% and the pest or weed control at 250 g/ha [8] was 100%.
`CCc1ccc(Oc2ccnc(Cl)c2)cc1C1=C(O)C(C)(C)OC(C)(C)C1=O` [Example A-72] showed a pest or weed control at 250 g/ha [1] of 60%, a pest or weed control at 250 g/ha [2] of 30% and a pest or weed control at 250 g/ha [3] of 90%. It also gave a pest or weed control at 250 g/ha [4] of 70%, a pest or weed control at 250 g/ha [5] of 60% and a pest or weed control at 250 g/ha [6] of 50%. The pest or weed control at 250 g/ha [7] was 90% and the pest or weed control at 250 g/ha [8] was 40%.
For `CCc1ccc(Oc2ccc([N+](=O)[O-])cc2C(F)(F)F)cc1C1=C(O)C(C)(C)OC(C)(C)C1=O` [Example A-198], the pest or weed control at 250 g/ha [1] was 0%, the pest or weed control at 250 g/ha [2] was 0% and the pest or weed control at 250 g/ha [3] was 60%. For the same compound, the pest or weed control at 250 g/ha [4] was 10%, the pest or weed control at 250 g/ha [5] was 70% and the pest or weed control at 250 g/ha [6] was 60%. The pest or weed control at 250 g/ha [7] was 100% and the pest or weed control at 250 g/ha [8] was 70%.
With `CCc1ccc(Oc2ccc(C#N)cc2Cl)cc1C1=C(O)C(C)(C)OC(C)(C)C1=O` [Example A-73] the pest or weed control at 250 g/ha [1] was 90%, the pest or weed control at 250 g/ha [2] was 80% and the pest or weed control at 250 g/ha [3] was 100%. The pest or weed control at 250 g/ha [4] was 80%, the pest or weed control at 250 g/ha [5] was 90% and the pest or weed control at 250 g/ha [6] was 40%. The pest or weed control at 250 g/ha [7] was 100% and the pest or weed control at 250 g/ha [8] was 70%.
For `CCc1ccc(Oc2ccc(C(F)(F)F)c(Cl)c2)cc1C1=C(O)CC(C)(C)CC1=O` [Example A-283], the pest or weed control at 250 g/ha [1] was 70%, the pest or weed control at 250 g/ha [2] was 10% and the pest or weed control at 250 g/ha [3] was 90%. For the same compound, the pest or weed control at 250 g/ha [4] was 60%, the pest or weed control at 250 g/ha [5] was 80% and the pest or weed control at 250 g/ha [6] was 90%. It also gave a pest or weed control at 250 g/ha [7] of 90% and a pest or weed control at 250 g/ha [8] of 90%.
`CCc1ccc(Oc2ccc(F)cc2F)cc1C1=C(O)C(C)(C)OC(C)(C)C1=O` [Example A-14] was tested, and the pest or weed control at 250 g/ha [1] was 0%, the pest or weed control at 250 g/ha [2] was 0% and the pest or weed control at 250 g/ha [3] was 0%. It also gave a pest or weed control at 250 g/ha [4] of 0%, a pest or weed control at 250 g/ha [5] of 0% and a pest or weed control at 250 g/ha [6] of 10%. The pest or weed control at 250 g/ha [7] was 100% and the pest or weed control at 250 g/ha [8] was 40%.
In the case of `CCc1ccc(Oc2ccc3cc(Cl)ccc3n2)cc1C1=C(O)C(C)(C)OC(C)(C)C1=O` [Example A-159], the pest or weed control at 250 g/ha [1] is reported as 30%, the pest or weed control at 250 g/ha [2] is reported as 40% and the pest or weed control at 250 g/ha [3] is reported as 90%. The pest or weed control at 250 g/ha [4] was 100%, the pest or weed control at 250 g/ha [5] was 80% and the pest or weed control at 250 g/ha [6] was 80%. It also gave a pest or weed control at 250 g/ha [7] of 100% and a pest or weed control at 250 g/ha [8] of 100%.
In the case of `CCc1ccc(Oc2cc(F)ccc2C#N)cc1C1=C(O)C(C)(C)OC(C)(C)C1=O` [Example A-117], the pest or weed control at 250 g/ha [1] is reported as 0%, the pest or weed control at 250 g/ha [2] is reported as 0% and the pest or weed control at 250 g/ha [3] is reported as 20%. The pest or weed control at 250 g/ha [4] was 20%, the pest or weed control at 250 g/ha [5] was 80% and the pest or weed control at 250 g/ha [6] was 30%. It also gave a pest or weed control at 250 g/ha [7] of 100% and a pest or weed control at 250 g/ha [8] of 40%.
Compound `CCc1ccc(Oc2ncc(Cl)cc2Cl)cc1C1=C(O)C(C)(C)OC(C)(C)C1=O` [Example A-44] has a pest or weed control at 250 g/ha [1] of 100%, a pest or weed control at 250 g/ha [2] of 100% and a pest or weed control at 250 g/ha [3] of 100%. The pest or weed control at 250 g/ha [4] was 100%, the pest or weed control at 250 g/ha [5] was 100% and the pest or weed control at 250 g/ha [6] was 100%. The pest or weed control at 250 g/ha [7] was 100% and the pest or weed control at 250 g/ha [8] was 100%.
`CCc1ccc(Oc2ncc(Cl)cc2[N+](=O)[O-])cc1C1=C(O)C(C)(C)OC(C)(C)C1=O` [Example A-162] showed a pest or weed control at 250 g/ha [1] of 30%, a pest or weed control at 250 g/ha [2] of 10% and a pest or weed control at 250 g/ha [3] of 60%. The pest or weed control at 250 g/ha [4] was 50%, the pest or weed control at 250 g/ha [5] was 80% and the pest or weed control at 250 g/ha [6] was 50%. The pest or weed control at 250 g/ha [7] was 90% and the pest or weed control at 250 g/ha [8] was 70%.
`CCc1ccc(Oc2ccc(Cl)cn2)cc1C1=C(O)CC(C)(C)CC1=O` [Example A-301] showed a pest or weed control at 250 g/ha [1] of 70%, a pest or weed control at 250 g/ha [2] of 60% and a pest or weed control at 250 g/ha [3] of 100%. For the same compound, the pest or weed control at 250 g/ha [4] was 100%, the pest or weed control at 250 g/ha [5] was 100% and the pest or weed control at 250 g/ha [6] was 60%. It also gave a pest or weed control at 250 g/ha [7] of 100% and a pest or weed control at 250 g/ha [8] of 90%.
`CCc1ccc(Oc2cnc3ccc(Br)cc3n2)cc1C1=C(O)CC(C)(C)CC1=O` [Example A-289] gave a pest or weed control at 250 g/ha [1] of 60%, a pest or weed control at 250 g/ha [2] of 40% and a pest or weed control at 250 g/ha [3] of 100%. It also gave a pest or weed control at 250 g/ha [4] of 90%, a pest or weed control at 250 g/ha [5] of 100% and a pest or weed control at 250 g/ha [6] of 100%. It also gave a pest or weed control at 250 g/ha [7] of 100% and a pest or weed control at 250 g/ha [8] of 100%.
With `CCc1ccc(Oc2ccc(F)c(Cl)c2)cc1C1=C(O)[C@H]2CC[C@H](C2)C1=O` [Example A-246] the pest or weed control at 250 g/ha [1] was 70%, the pest or weed control at 250 g/ha [2] was 50% and the pest or weed control at 250 g/ha [3] was 100%. The pest or weed control at 250 g/ha [4] was 60%, the pest or weed control at 250 g/ha [5] was 50% and the pest or weed control at 250 g/ha [6] was 60%. For the same compound, the pest or weed control at 250 g/ha [7] was 100% and the pest or weed control at 250 g/ha [8] was 20%.
Work on `CCc1ccc(Oc2ncc(Cl)cc2F)cc1C1=C(O)C(C)(C)OC(C)(C)C1=O` [Example A-54] yielded a pest or weed control at 250 g/ha [1] of 100%, a pest or weed control at 250 g/ha [2] of 90% and a pest or weed control at 250 g/ha [3] of 100%. The pest or weed control at 250 g/ha [4] was 100%, the pest or weed control at 250 g/ha [5] was 100% and the pest or weed control at 250 g/ha [6] was 100%. The pest or weed control at 250 g/ha [7] was 100% and the pest or weed control at 250 g/ha [8] was 100%.
Work on `CCc1ccc(Oc2cccc(C(F)(F)F)n2)cc1C1=C(O)C(C)(C)OC(C)(C)C1=O` [Example A-53] yielded a pest or weed control at 250 g/ha [1] of 0%, a pest or weed control at 250 g/ha [2] of 0% and a pest or weed control at 250 g/ha [3] of 20%. For the same compound, the pest or weed control at 250 g/ha [4] was 40%, the pest or weed control at 250 g/ha [5] was 0% and the pest or weed control at 250 g/ha [6] was 0%. It also gave a pest or weed control at 250 g/ha [7] of 80% and a pest or weed control at 250 g/ha [8] of 30%.
With `CCCc1cnc(Oc2ccc(CC)c(C3=C(O)C(C)(C)OC(C)(C)C3=O)c2)nc1` [Example A-128] the pest or weed control at 250 g/ha [1] was 20%, the pest or weed control at 250 g/ha [2] was 10% and the pest or weed control at 250 g/ha [3] was 50%. It also gave a pest or weed control at 250 g/ha [4] of 60%, a pest or weed control at 250 g/ha [5] of 50% and a pest or weed control at 250 g/ha [6] of 30%. It also gave a pest or weed control at 250 g/ha [7] of 70% and a pest or weed control at 250 g/ha [8] of 40%.
In the case of `CCc1ccc(Oc2ccc([N+](=O)[O-])cn2)cc1C1=C(O)C(C)(C)OC(C)(C)C1=O` [Example A-149], the pest or weed control at 250 g/ha [1] is reported as 10%, the pest or weed control at 250 g/ha [2] is reported as 10% and the pest or weed control at 250 g/ha [3] is reported as 60%. It also gave a pest or weed control at 250 g/ha [4] of 20%, a pest or weed control at 250 g/ha [5] of 10% and a pest or weed control at 250 g/ha [6] of 30%. The pest or weed control at 250 g/ha [7] was 50% and the pest or weed control at 250 g/ha [8] was 30%.

Reference: patent US8865623B2, “Herbicidally active cyclic diones and derivatives thereof, processes for their preparation, compositions, and method of controlling weeds” (Syngenta Limited, priority 2009, dated 2014)
